# According to patent publication US9302999B2, “Substituted triazoles as herbicides” (E. I. DU PONT DE NEMOURS AND COMPANY, priority 2012, dated 2016):
# Legend:
# Type in all cases: in vivo
# [1] = tested on: barnyardgrass (Echinochloa crus-galli); experiment: Test C flooded paddy test: barnyardgrass; conditions: scale 0 to 100 (0 no effect, 100 complete control)
# In short: (§1)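 Greenhouse plants treated at the 2-leaf stage by dosing the flood water (3 cm depth, maintained) were compared with controls after 13 to 15 days and rated 0 to 100, where 100 means complete control; a dash marks no test result.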
# rice (Oryza sativa) = experiment: Test C flooded paddy test: rice; conditions: scale 0 to 100 (0 no effect, 100 complete control)
# In short: as §1
# [2] = tested on: velvetleaf (Abutilon theophrasti); experiment: Test A pre-/postemergence: velvetleaf; conditions: for Velvetleaf plant response rating: Postemergence; for Plant response rating, Velvetleaf: Preemergence
# In short: (§2)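 Visual 0–100 injury ratings (0 no effect, 100 complete control) taken about ten days after treatment, relative to untreated controls. Preemergence treatment was a directed soil spray; postemergence plants were 2–10 cm tall at one- to two-leaf stage. Soil: loam/sand blend.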
# [3] = tested on: crabgrass, large (large crabgrass, Digitaria sanguinalis); experiment: Test A pre-/postemergence: crabgrass, large; conditions: for Crabgrass, Large plant response rating: Postemergence; for Plant response rating, Crabgrass, Large: Preemergence
# In short: as §2
# [4] = tested on: foxtail, giant (giant foxtail, Setaria faberii); experiment: Test A pre-/postemergence: foxtail, giant; conditions: for Foxtail, Giant plant response rating: Postemergence; for Plant response rating, Foxtail, Giant: Preemergence
# In short: as §2
# corn (Zea mays) = experiment: Test A pre-/postemergence: corn; conditions: for Corn plant response rating: Postemergence; for Plant response rating, Corn: Preemergence
# In short: as §2
# [5] = tested on: ducksalad (Heteranthera limosa); experiment: Test C flooded paddy test: ducksalad; conditions: scale 0 to 100 (0 no effect, 100 complete control)
# In short: as §1
# [6] = tested on: wheat (Triticum aestivum); experiment: Test A pre-/postemergence: wheat; conditions: for Wheat plant response rating: Postemergence; for Plant response rating, Wheat: Preemergence
# In short: as §2
# [7] = tested on: pigweed (Amaranthus retroflexus); experiment: Test A pre-/postemergence: pigweed; conditions: for Pigweed plant response rating: Postemergence; for Plant response rating, Pigweed: Preemergence
# In short: as §2
# [8] = tested on: barnyardgrass (Echinochloa crus-galli); experiment: Test A pre-/postemergence: barnyardgrass; conditions: for Barnyardgrass plant response rating: Postemergence; for Plant response rating, Barnyardgrass: Preemergence
# In short: as §2
# [9] = tested on: morningglory (Ipomoea spp.); experiment: Test A pre-/postemergence: morningglory; conditions: for Morningglory plant response rating: Postemergence; for Plant response rating, Morningglory: Preemergence
# In short: as §2
# [10] = tested on: sedge, umbrella (small-flower umbrella sedge, Cyperus difformis); experiment: Test C flooded paddy test: sedge, umbrella; conditions: scale 0 to 100 (0 no effect, 100 complete control)
# In short: as §1
# [11] = Flood (flooded paddy test), 125 g ai/ha, visual rating after 13 to 15 days
# [12] = Flood (flooded paddy test), 250 g ai/ha, visual rating after 13 to 15 days
# [13] = 125 g ai/ha, 0 to 100 scale, 0 is no effect, 100 is complete control
# [14] = 500 g ai/ha, visual rating on 0 to 100 scale (0 no effect, 100 complete control), approximately ten days
# [15] = 125 g ai/ha, 0 to 100 scale (0 no effect, 100 complete control)
# [16] = 500 g ai/ha, 0 to 100 scale, 0 is no effect, 100 is complete control
# [17] = 125 g ai/ha, 0 to 100 scale where 0 is no effect and 100 is complete control
structure (smiles),measurement,setting,value
Cc1nn(-c2ccc(C(F)(F)F)cc2)nc1Oc1cccc(Cl)c1 [Compound 84],"Plant response rating, Barnyardgrass",[1]; [11],0
same,"Plant response rating, Barnyardgrass",[1]; [12],10
same,"Plant response rating, Barnyardgrass","[1]; Flood, 31 g ai/ha",0
same,"Plant response rating, Barnyardgrass","[1]; Flood, 62 g ai/ha",0
same,"Plant response rating, Rice",rice (Oryza sativa); [11],20
same,"Plant response rating, Rice",rice (Oryza sativa); [12],20
same,"Plant response rating, Rice","rice (Oryza sativa); Flood, 31 g ai/ha",0
same,"Plant response rating, Rice","rice (Oryza sativa); Flood, 62 g ai/ha",0
same,Velvetleaf plant response rating,[2]; [13],10
same,Velvetleaf plant response rating,[2]; [14],20
same,"Plant response rating, Velvetleaf",[2]; [15],0
same,"Plant response rating, Velvetleaf",[2]; [16],0
same,"Crabgrass, Large plant response rating",[3]; [13],10
same,"Crabgrass, Large plant response rating",[3]; [14],50
same,"Plant response rating, Crabgrass, Large",[3]; [15],0
same,"Plant response rating, Crabgrass, Large",[3]; [16],60
same,"Foxtail, Giant plant response rating",[4]; [13],10
same,"Foxtail, Giant plant response rating",[4]; [14],20
same,"Plant response rating, Foxtail, Giant",[4]; [15],0
same,"Plant response rating, Foxtail, Giant",[4]; [16],30
same,Corn plant response rating,corn (Zea mays); [13],10
same,Corn plant response rating,corn (Zea mays); [14],30
same,"Plant response rating, Corn",corn (Zea mays); [15],0
same,"Plant response rating, Corn",corn (Zea mays); [16],0
same,"Plant response rating, Ducksalad",[5]; [11],0
same,"Plant response rating, Ducksalad",[5]; [12],40
same,"Plant response rating, Ducksalad","[5]; Flood, 31 g ai/ha",0
same,"Plant response rating, Ducksalad","[5]; Flood, 62 g ai/ha",0
same,Wheat plant response rating,[6]; [13],0
same,Wheat plant response rating,[6]; [14],0
same,"Plant response rating, Wheat",[6]; [15],0
same,"Plant response rating, Wheat",[6]; [16],0
same,Pigweed plant response rating,[7]; [13],40
same,Pigweed plant response rating,[7]; [14],90
same,"Plant response rating, Pigweed",[7]; [15],0
same,"Plant response rating, Pigweed",[7]; [16],50
same,Barnyardgrass plant response rating,[8]; [13],0
same,Barnyardgrass plant response rating,[8]; [14],10
same,"Plant response rating, Barnyardgrass",[8]; [15],0
same,"Plant response rating, Barnyardgrass",[8]; [16],0
same,Morningglory plant response rating,[9]; [13],30
same,Morningglory plant response rating,[9]; [14],30
same,"Plant response rating, Morningglory",[9]; [15],0
same,"Plant response rating, Morningglory",[9]; [16],0
same,"Plant response rating, Sedge, Umbrella",[10]; [11],0
same,"Plant response rating, Sedge, Umbrella",[10]; [12],20
same,"Plant response rating, Sedge, Umbrella","[10]; Flood, 31 g ai/ha",0
same,"Plant response rating, Sedge, Umbrella","[10]; Flood, 62 g ai/ha",0
Cc1nn(-c2ccc(C(F)(F)F)cn2)nc1C(=O)c1cccc(C(F)(F)F)c1 [Compound 107],"Plant response rating, Barnyardgrass",[1]; [11],20
same,"Plant response rating, Barnyardgrass",[1]; [12],25
same,"Plant response rating, Barnyardgrass","[1]; Flood, 31 g ai/ha",0
same,"Plant response rating, Barnyardgrass","[1]; Flood, 62 g ai/ha",15
same,"Plant response rating, Rice",rice (Oryza sativa); [11],0
same,"Plant response rating, Rice",rice (Oryza sativa); [12],25
same,"Plant response rating, Rice","rice (Oryza sativa); Flood, 31 g ai/ha",0
same,"Plant response rating, Rice","rice (Oryza sativa); Flood, 62 g ai/ha",0
same,Velvetleaf plant response rating,[2]; [13],40
same,Velvetleaf plant response rating,[2]; [14],50
same,"Plant response rating, Velvetleaf",[2]; [17],10
same,"Plant response rating, Velvetleaf",[2]; [16],10
same,"Crabgrass, Large plant response rating",[3]; [13],60
same,"Crabgrass, Large plant response rating",[3]; [14],90
same,"Plant response rating, Crabgrass, Large",[3]; [15],100
same,"Plant response rating, Crabgrass, Large",[3]; [16],100
same,"Foxtail, Giant plant response rating",[4]; [13],40
same,"Foxtail, Giant plant response rating",[4]; [14],90
same,"Plant response rating, Foxtail, Giant",[4]; [17],90
same,"Plant response rating, Foxtail, Giant",[4]; [16],100
same,Corn plant response rating,corn (Zea mays); [13],20
same,Corn plant response rating,corn (Zea mays); [14],30
same,"Plant response rating, Corn",corn (Zea mays); [15],0
same,"Plant response rating, Corn",corn (Zea mays); [16],10
same,"Plant response rating, Ducksalad",[5]; [11],20
same,"Plant response rating, Ducksalad",[5]; [12],40
same,"Plant response rating, Ducksalad","[5]; Flood, 31 g ai/ha",0
same,"Plant response rating, Ducksalad","[5]; Flood, 62 g ai/ha",0
same,Wheat plant response rating,[6]; [13],20
same,Wheat plant response rating,[6]; [14],40
same,"Plant response rating, Wheat",[6]; [17],0
same,"Plant response rating, Wheat",[6]; [16],0
same,Pigweed plant response rating,[7]; [13],90
same,Pigweed plant response rating,[7]; [14],100
same,"Plant response rating, Pigweed",[7]; [17],70
same,"Plant response rating, Pigweed",[7]; [16],100
same,Barnyardgrass plant response rating,[8]; [13],30
same,Barnyardgrass plant response rating,[8]; [14],60
same,"Plant response rating, Barnyardgrass",[8]; [15],30
same,"Plant response rating, Barnyardgrass",[8]; [16],80
same,Morningglory plant response rating,[9]; [13],70
same,Morningglory plant response rating,[9]; [14],80
same,"Plant response rating, Morningglory",[9]; [17],20
same,"Plant response rating, Morningglory",[9]; [16],30
same,"Plant response rating, Sedge, Umbrella",[10]; [11],60
same,"Plant response rating, Sedge, Umbrella",[10]; [12],80
same,"Plant response rating, Sedge, Umbrella","[10]; Flood, 31 g ai/ha",0
same,"Plant response rating, Sedge, Umbrella","[10]; Flood, 62 g ai/ha",40
Cc1nn(-c2ccc(C(F)(F)F)cc2)nc1Oc1cccc(C(F)(F)F)c1 [Compound 111],"Plant response rating, Barnyardgrass",[1]; [11],20
same,"Plant response rating, Barnyardgrass",[1]; [12],35
same,"Plant response rating, Barnyardgrass","[1]; Flood, 31 g ai/ha",0
same,"Plant response rating, Barnyardgrass","[1]; Flood, 62 g ai/ha",0
same,"Plant response rating, Rice",rice (Oryza sativa); [11],25
same,"Plant response rating, Rice",rice (Oryza sativa); [12],30
same,"Plant response rating, Rice","rice (Oryza sativa); Flood, 31 g ai/ha",0
same,"Plant response rating, Rice","rice (Oryza sativa); Flood, 62 g ai/ha",0
same,Velvetleaf plant response rating,[2]; [13],20
same,Velvetleaf plant response rating,[2]; [14],70
same,"Plant response rating, Velvetleaf",[2]; [17],0
same,"Plant response rating, Velvetleaf",[2]; [16],50
same,"Crabgrass, Large plant response rating",[3]; [13],90
same,"Crabgrass, Large plant response rating",[3]; [14],90
same,"Plant response rating, Crabgrass, Large",[3]; [17],80
same,"Plant response rating, Crabgrass, Large",[3]; [16],100
same,"Foxtail, Giant plant response rating",[4]; [13],80
same,"Foxtail, Giant plant response rating",[4]; [14],90
same,"Plant response rating, Foxtail, Giant",[4]; [17],70
same,"Plant response rating, Foxtail, Giant",[4]; [16],100
same,Corn plant response rating,corn (Zea mays); [13],20
same,Corn plant response rating,corn (Zea mays); [14],30
same,"Plant response rating, Corn",corn (Zea mays); [17],0
same,"Plant response rating, Corn",corn (Zea mays); [16],20
same,"Plant response rating, Ducksalad",[5]; [11],70
same,"Plant response rating, Ducksalad",[5]; [12],80
same,"Plant response rating, Ducksalad","[5]; Flood, 31 g ai/ha",0
same,"Plant response rating, Ducksalad","[5]; Flood, 62 g ai/ha",30
same,Wheat plant response rating,[6]; [13],10
same,Wheat plant response rating,[6]; [14],40
same,"Plant response rating, Wheat",[6]; [17],0
same,"Plant response rating, Wheat",[6]; [16],0
same,Pigweed plant response rating,[7]; [13],90
same,Pigweed plant response rating,[7]; [14],90
same,"Plant response rating, Pigweed",[7]; [17],70
same,"Plant response rating, Pigweed",[7]; [16],90
same,Barnyardgrass plant response rating,[8]; [13],20
same,Barnyardgrass plant response rating,[8]; [14],30
same,"Plant response rating, Barnyardgrass",[8]; [17],20
same,"Plant response rating, Barnyardgrass",[8]; [16],80
same,Morningglory plant response rating,[9]; [13],70
same,Morningglory plant response rating,[9]; [14],100
same,"Plant response rating, Morningglory",[9]; [17],0
same,"Plant response rating, Morningglory",[9]; [16],30
same,"Plant response rating, Sedge, Umbrella",[10]; [11],80
same,"Plant response rating, Sedge, Umbrella",[10]; [12],85
same,"Plant response rating, Sedge, Umbrella","[10]; Flood, 31 g ai/ha",45
same,"Plant response rating, Sedge, Umbrella","[10]; Flood, 62 g ai/ha",65
